Reference: PMC6631596, “Analgesic and Anti-Inflammatory Activities of Quercetin-3-methoxy-4′-glucosyl-7-glucoside Isolated from Indian Medicinal Plant Melothria heterophylla” (Medicines, 2019)

What was measured:
COX-2 = molecular target: T1, COX-2 (Homo sapiens, UniProt P35354); test: Cayman COX inhibitor screening assay (prostaglandin ELISA); assay type: biochemical
T1 construct: gene PTGS2; human recombinant COX-2
T1 sequence (P35354 18-604): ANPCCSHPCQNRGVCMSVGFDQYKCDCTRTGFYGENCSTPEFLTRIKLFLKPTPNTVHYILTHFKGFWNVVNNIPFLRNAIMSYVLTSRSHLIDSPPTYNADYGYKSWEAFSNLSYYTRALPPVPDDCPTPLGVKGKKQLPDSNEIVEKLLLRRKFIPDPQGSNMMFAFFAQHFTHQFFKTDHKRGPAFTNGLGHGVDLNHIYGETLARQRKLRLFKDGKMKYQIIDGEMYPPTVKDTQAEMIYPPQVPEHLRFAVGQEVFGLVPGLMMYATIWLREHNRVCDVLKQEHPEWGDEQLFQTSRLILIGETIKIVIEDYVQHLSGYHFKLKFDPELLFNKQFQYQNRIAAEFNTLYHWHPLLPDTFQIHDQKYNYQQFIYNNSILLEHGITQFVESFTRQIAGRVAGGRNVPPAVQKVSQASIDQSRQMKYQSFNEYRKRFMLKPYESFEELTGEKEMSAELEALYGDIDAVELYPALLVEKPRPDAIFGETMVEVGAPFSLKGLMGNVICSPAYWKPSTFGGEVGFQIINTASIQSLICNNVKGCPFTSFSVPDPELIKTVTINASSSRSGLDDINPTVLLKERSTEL

COX-1 = molecular target: T2, COX-1 (Ovis aries, UniProt P05979); test: as above; assay type: biochemical
T2 construct: gene PTGS1; ovine COX-1
T2 sequence (P05979 25-600): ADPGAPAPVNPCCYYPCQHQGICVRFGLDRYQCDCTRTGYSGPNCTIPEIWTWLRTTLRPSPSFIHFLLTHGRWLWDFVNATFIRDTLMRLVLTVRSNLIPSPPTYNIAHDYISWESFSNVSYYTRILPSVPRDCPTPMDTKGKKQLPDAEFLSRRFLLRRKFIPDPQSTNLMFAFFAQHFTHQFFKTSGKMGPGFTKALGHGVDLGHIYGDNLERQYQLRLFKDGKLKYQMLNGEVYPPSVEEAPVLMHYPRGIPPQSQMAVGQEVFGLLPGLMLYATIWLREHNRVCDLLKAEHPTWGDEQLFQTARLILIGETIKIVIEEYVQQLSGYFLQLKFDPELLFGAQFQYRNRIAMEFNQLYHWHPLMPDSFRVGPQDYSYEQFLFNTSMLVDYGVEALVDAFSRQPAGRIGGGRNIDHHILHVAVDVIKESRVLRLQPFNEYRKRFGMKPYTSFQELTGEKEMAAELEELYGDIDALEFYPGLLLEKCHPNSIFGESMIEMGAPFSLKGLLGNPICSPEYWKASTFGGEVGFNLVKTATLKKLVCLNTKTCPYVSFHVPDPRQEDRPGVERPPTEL

IC50 (COX-2): 3.11 µM
IC50 (COX-1): 4.31 µM
Structure (SMILES): COc1c(-c2ccc(O[C@@H]3O[C@H](CO)[C@@H](O)[C@H](O)[C@H]3O)c(O)c2)oc2cc(O[C@@H]3O[C@H](CO)[C@@H](O)[C@H](O)[C@H]3O)cc(O)c2c1=O [quercetin-3-methoxy-4′-glucosyl-7-glucoside]
